The results in this text go back to US20260028365A1 (BIOGEN MA INC., priority 2022, published 2026).

The term IC50 denotes the concentration needed to halve the response being measured.

For one assay, the target named is JH2 domain of human Tyk2 (Homo sapiens (Human), UniProt P29597). The assay can be described thus: JH2 Biochemical Assay (TR-FRET probe displacement). Type of assay: binding. On the technique in general: Time-resolved FRET reads energy transfer from a long-lived donor to a nearby acceptor.
JH2 domain of human Tyk2, sequence (P29597 575-876): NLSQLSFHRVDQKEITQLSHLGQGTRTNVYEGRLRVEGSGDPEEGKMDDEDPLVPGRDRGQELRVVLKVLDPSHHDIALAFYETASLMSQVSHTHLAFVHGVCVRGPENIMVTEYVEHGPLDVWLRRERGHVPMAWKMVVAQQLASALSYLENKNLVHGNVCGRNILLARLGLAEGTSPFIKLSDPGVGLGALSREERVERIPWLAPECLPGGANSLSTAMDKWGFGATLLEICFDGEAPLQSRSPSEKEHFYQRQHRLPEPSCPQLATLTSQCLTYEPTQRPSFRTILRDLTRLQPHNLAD
In a further assay the target is Tyk2 (Homo sapiens (Human), UniProt P29597). The assay can be described thus: pSTAT4 Cell Assay (MSD, NK92 cells). Type of assay: cell-based.
Tyk2, sequence (P29597 whole entry, the tested form may be a part): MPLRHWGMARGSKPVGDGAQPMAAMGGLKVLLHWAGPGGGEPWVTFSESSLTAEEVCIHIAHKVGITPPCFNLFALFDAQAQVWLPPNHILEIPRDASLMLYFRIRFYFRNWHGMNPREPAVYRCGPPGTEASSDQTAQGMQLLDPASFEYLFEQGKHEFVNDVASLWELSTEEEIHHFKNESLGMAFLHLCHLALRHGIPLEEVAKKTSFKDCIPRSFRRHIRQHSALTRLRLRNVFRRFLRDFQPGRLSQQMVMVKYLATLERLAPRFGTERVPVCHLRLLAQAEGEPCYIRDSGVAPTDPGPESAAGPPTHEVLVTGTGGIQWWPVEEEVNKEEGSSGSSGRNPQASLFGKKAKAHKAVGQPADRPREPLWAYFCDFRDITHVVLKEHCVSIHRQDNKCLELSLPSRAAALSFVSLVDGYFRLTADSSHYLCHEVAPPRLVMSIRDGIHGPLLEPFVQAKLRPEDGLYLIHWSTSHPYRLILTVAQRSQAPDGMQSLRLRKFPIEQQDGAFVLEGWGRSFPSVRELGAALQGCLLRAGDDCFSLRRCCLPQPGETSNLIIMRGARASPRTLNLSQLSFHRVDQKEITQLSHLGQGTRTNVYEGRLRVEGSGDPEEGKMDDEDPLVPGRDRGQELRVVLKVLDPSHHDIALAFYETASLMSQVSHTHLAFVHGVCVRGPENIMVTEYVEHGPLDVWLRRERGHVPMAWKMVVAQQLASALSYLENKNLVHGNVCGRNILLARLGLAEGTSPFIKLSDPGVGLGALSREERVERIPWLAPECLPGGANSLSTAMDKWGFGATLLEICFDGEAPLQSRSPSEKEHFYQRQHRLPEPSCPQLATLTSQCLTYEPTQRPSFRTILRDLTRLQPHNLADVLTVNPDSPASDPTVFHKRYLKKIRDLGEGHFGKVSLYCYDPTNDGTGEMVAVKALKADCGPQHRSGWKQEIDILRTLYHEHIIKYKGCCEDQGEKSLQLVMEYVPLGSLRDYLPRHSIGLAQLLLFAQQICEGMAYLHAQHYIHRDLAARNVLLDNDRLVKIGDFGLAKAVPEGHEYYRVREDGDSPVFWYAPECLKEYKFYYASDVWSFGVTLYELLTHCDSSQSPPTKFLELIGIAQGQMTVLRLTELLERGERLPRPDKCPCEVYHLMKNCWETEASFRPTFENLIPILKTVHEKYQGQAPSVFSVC
[1] abbreviates: TR-FRET probe displacement, JH2 domain.
The mark [2] stands for this setting: JH2 domain of human Tyk2, TR-FRET probe displacement.
[3] abbreviates: TR-FRET probe displacement, JH2 domain of human Tyk2.

Where two headings read alike, the source gives them in different places.

In the case of `COCCN(C)c1cnc(-c2cnc(NC(C)=O)cc2Nc2ccnc(C(C)(F)F)n2)cn1` [Example 866, N-(4-((2-(1,1-difluoroethyl)pyrimidin-4-yl)amino)-5-(5-((2-methoxyethyl)(methyl)amino)pyrazin-2-yl)pyridin-2-yl)acetamide], the IC50 on JH2 domain of human Tyk2 (setting [1]) was at most 0.01 µM; against Tyk2, 0.01 to 0.1 µM.
Consider `CC(=O)Nc1cc(Nc2cc(C)nc(C(C)(F)F)n2)c(OCC2COCC3(CCC3)O2)cn1` (stereo not drawn) [Example 443, N-(5-((5,8-dioxaspiro[3.5]nonan-6-yl)methoxy)-4-((2-(1,1-difluoroethyl)-6-methylpyrimidin-4-yl)amino)pyridin-2-yl)acetamide], for which the IC50 at JH2 domain of human Tyk2 (setting [2]) is at most 0.01 µM; against Tyk2 (MSD), 0.01 to 0.1 µM.
Turning to `CC(=O)Nc1cc(Nc2cc(C)nc(C(C)(F)F)n2)c(-c2cccc(C(C)O)n2)cn1` (racemic) [Example 638, rac-(R)-N-(4′-((2-(1,1-difluoroethyl)-6-methylpyrimidin-4-yl)amino)-6-(1-hydroxyethyl)-[2,3′-bipyridin]-6′-yl)acetamide], the IC50 at JH2 domain of human Tyk2 (setting [2]) and at Tyk2 (MSD) was at most 0.01 µM throughout.
With `COc1cnc(NC(C)=O)cc1Nc1cc(OC2CC(F)(F)C2)nc(C(C)(F)F)n1` [Example 460, N-(4-((6-(3,3-difluorocyclobutoxy)-2-(1,1-difluoroethyl)pyrimidin-4-yl)amino)-5-methoxypyridin-2-yl)acetamide], the results for the IC50 at JH2 domain of human Tyk2 (setting [2]) and on Tyk2 (MSD) were at most 0.01 µM and 0.01 to 0.1 µM, respectively.
In the case of `CC(=O)Nc1cc(Nc2cc(OC3CC3)nc(C(C)(F)F)n2)c(F)cn1` [Example 818, N-(4-((6-cyclopropoxy-2-(1,1-difluoroethyl)pyrimidin-4-yl)amino)-5-fluoropyridin-2-yl)acetamide], the figures for the IC50 at JH2 domain of human Tyk2 (setting [1]) and against Tyk2 were at most 0.01 µM and 0.1 to 1 µM, respectively.
On to `CCC(F)(F)c1cnc(NC(C)=O)cc1Nc1cc(C)nc(C(C)(F)F)n1` [Example 154, N-(4-((2-(1,1-difluoroethyl)-6-methylpyrimidin-4-yl)amino)-5-(1,1-difluoropropyl)pyridin-2-yl)acetamide], for which the IC50 is 0.01 to 0.1 µM at JH2 domain of human Tyk2 (setting [3]) and at least 1 µM against Tyk2 (MSD).
Regarding `COC1(COc2cnc(NC(C)=O)cc2Nc2cc(C)nc(C(C)(F)F)n2)CCC1` [Example 493, N-(4-((2-(1,1-difluoroethyl)-6-methylpyrimidin-4-yl)amino)-5-((1-methoxycyclobutyl)methoxy)pyridin-2-yl)acetamide], the IC50 is at most 0.01 µM on JH2 domain of human Tyk2 (setting [2]) and 0.01 to 0.1 µM at Tyk2 (MSD).
As for `CCc1cc(Nc2cc(NC(=O)OC)ncc2OCCN(C)C)nc(C(C)(F)F)n1` [Example 92, methyl (4-((2-(1,1-difluoroethyl)-6-ethylpyrimidin-4-yl)amino)-5-(2-(dimethylamino)ethoxy)pyridin-2-yl)carbamate], the IC50 on JH2 domain of human Tyk2 (setting [3]) is at most 0.01 µM; on Tyk2 (MSD), 0.01 to 0.1 µM.
Turning to `CCc1cc(Nc2cc(NC(C)=O)ncc2-c2cnc(CN3C[C@@H]4C[C@H]3CO4)cn2)nc(C(C)(F)F)n1` [Example 894, N-(5-(5-(((1S,4S)-2-oxa-5-azabicyclo[2.2.1]heptan-5-yl)methyl)pyrazin-2-yl)-4-((2-(1,1-difluoroethyl)-6-ethylpyrimidin-4-yl)amino)pyridin-2-yl)acetamide], the half-maximal inhibitory concentration (IC50) at JH2 domain of human Tyk2 (setting [1]) and against Tyk2 was at most 0.01 µM throughout.
Consider `CCCc1cnc(NC(C)=O)cc1Nc1cc(C)nc(C(C)(F)F)n1` [Example 43, N-(4-((2-(1,1-difluoroethyl)-6-methylpyrimidin-4-yl)amino)-5-propylpyridin-2-yl)acetamide], for which the IC50 at JH2 domain of human Tyk2 (setting [3]) is 0.01 to 0.1 µM; on Tyk2 (MSD), at least 1 µM.
In the case of `CCOc1cnc(NC(C)=O)cc1Nc1cc(OC2CC(C)C2)nc(C(C)(F)F)n1` (stereo not drawn) [Example 464, N-(4-((2-(1,1-difluoroethyl)-6-(3-methylcyclobutoxy)pyrimidin-4-yl)amino)-5-ethoxypyridin-2-yl)acetamide], the IC50 at JH2 domain of human Tyk2 (setting [2]) and at Tyk2 (MSD) was at most 0.01 µM in each case.
For `CC(=O)Nc1cc(Nc2cc(C)nc(C(C)(F)F)n2)c(-c2ccc3c(n2)CCC3=O)cn1` [Example 677, N-(4-((2-(1,1-difluoroethyl)-6-methylpyrimidin-4-yl)amino)-5-(5-oxO6,7-dihydrO5H-cyclopenta[b]pyridin-2-yl)pyridin-2-yl)acetamide], the IC50 at JH2 domain of human Tyk2 (setting [2]) and against Tyk2 (MSD) was at most 0.01 µM in each case.
Turning to `CC(=O)Nc1cc(Nc2cc(C)nc(C(C)(F)F)n2)c(-c2coc(C)n2)cn1` [Example 578, N-(4-((2-(1,1-difluoroethyl)-6-methylpyrimidin-4-yl)amino)-5-(2-methyloxazol-4-yl)pyridin-2-yl)acetamide], the IC50 at JH2 domain of human Tyk2 (setting [2]) and on Tyk2 (MSD) was at most 0.01 µM throughout.
For `COc1cc(-c2cnc(NC(C)=O)cc2Nc2ccnc(C(C)(F)F)n2)nc(C)n1` [Example 163, N-(4-((2-(1,1-difluoroethyl)pyrimidin-4-yl)amino)-5-(6-methoxy-2-methylpyrimidin-4-yl)pyridin-2-yl)acetamide], the IC50 at JH2 domain of human Tyk2 (setting [3]) is at most 0.01 µM; against Tyk2 (MSD) it was 0.01 to 0.1 µM.
For the compound `CNC(=O)Nc1cc(Nc2cc(C)nc(C(C)(F)F)n2)c(-c2ccc(C#N)cn2)cn1` [Example 520, 1-(5-cyano-4′-((2-(1,1-difluoroethyl)-6-methylpyrimidin-4-yl)amino)-[2,3′-bipyridin]-6′-yl)-3-methylurea], the IC50 at JH2 domain of human Tyk2 (setting [2]) and on Tyk2 (MSD) was at most 0.01 µM in each case.
On to `CC(=O)Nc1cc(Nc2cc(C)nc(C(C)(F)F)n2)c(-c2cncc(CN(C)C)n2)cn1` [Example 675, N-(4-((2-(1,1-difluoroethyl)-6-methylpyrimidin-4-yl)amino)-5-(6-((dimethylamino)methyl)pyrazin-2-yl)pyridin-2-yl)acetamide], for which the IC50 at JH2 domain of human Tyk2 (setting [2]) is at most 0.01 µM; against Tyk2 (MSD) it was 0.1 to 1 µM.
As for `COCCOc1nccc(Nc2cc(NC(C)=O)ncc2-c2ccn(C)n2)n1` [Example 549, N-(4-((2-(2-methoxyethoxy)pyrimidin-4-yl)amino)-5-(1-methyl-1H-pyrazol-3-yl)pyridin-2-yl)acetamide], the IC50 at JH2 domain of human Tyk2 (setting [2]) was at most 0.01 µM; against Tyk2 (MSD), 0.1 to 1 µM.
`CC(=O)Nc1cc(Nc2cc(C)nc(C(C)(F)F)n2)c(-c2cc(OC(C)C)ncn2)cn1` [Example 242, N-(4-((2-(1,1-difluoroethyl)-6-methylpyrimidin-4-yl)amino)-5-(6-isopropoxypyrimidin-4-yl)pyridin-2-yl)acetamide]: the IC50 on JH2 domain of human Tyk2 (setting [3]) was at most 0.01 µM; on Tyk2 (MSD), 0.01 to 0.1 µM.
In the case of `COc1nn(C)cc1COc1cnc(NC(C)=O)cc1Nc1cc(C)nc(C(C)(F)F)n1` [Example 512, N-(4-((2-(1,1-difluoroethyl)-6-methylpyrimidin-4-yl)amino)-5-((3-methoxy-1-methyl-1H-pyrazol-4-yl)methoxy)pyridin-2-yl)acetamide], the IC50 on JH2 domain of human Tyk2 (setting [2]) and against Tyk2 (MSD) was 0.1 to 1 µM in each case.
As to `COc1cnc(NC(C)=O)cc1Nc1cc(-c2cnn(CC(F)(F)F)c2)nc(C(C)(F)F)n1` [Example 381, N-(4-((2-(1,1-difluoroethyl)-6-(1-(2,2,2-trifluoroethyl)-1H-pyrazol-4-yl)pyrimidin-4-yl)amino)-5-methoxypyridin-2-yl)acetamide], the IC50 at JH2 domain of human Tyk2 (setting [2]) is at most 0.01 µM; against Tyk2 (MSD) it was 0.01 to 0.1 µM.
For `COc1cnc(NC(C)=O)cc1Nc1cc(-c2cnn(C(C)C)c2)nc(C(C)(F)F)n1` [Example 363, N-(4-((2-(1,1-difluoroethyl)-6-(1-isopropyl-1H-pyrazol-4-yl)pyrimidin-4-yl)amino)-5-methoxypyridin-2-yl)acetamide], the IC50 on JH2 domain of human Tyk2 (setting [3]) and against Tyk2 (MSD) was at most 0.01 µM each time.
